Assay [1] addresses T1, ALK(G1202R/L1196M) (Homo sapiens, UniProt Q9UM73, G1202R/L1196M).
T1 construct: purchased Carna
Description: In vitro kinase inhibitory activity assay, Experimental method 2 (ADP-Glo). The format is biochemical. The method, then: (§1) The kinase inhibitory activity assays of the compounds against ALK, ALK^L1196M, ALK^G1202R, ALK^G1202R/L1196M, ROS1, and TRKB were conducted at Wuhan Heyan Biotechnology Co., Ltd. or Hefei PreceDo Biotechnology Co., Ltd.
(§2) Experimental materials: ALK (G1202R/L1196M) Active and TRKB were purchased from Carna; IGF1 was purchased from GenScript; PolyE4Y1 was purchased from SIGMA; ADP-Glo™ Reagent was purchased from Promega; ATP was purchased from Promega; Kinase Detection Reagent was purchased from Promega; microplate reader ( PerkinElmer).
Reaction system: ALK(G1202R/L1196M) reaction concentration 8.63 nM, ATP concentration 5.0 µM, substrate IGF1 concentration 0.2 µg/µL. ALK(G1202R/L1196M) kinase buffer was 40 mM Tris-HCl (pH 7.5) + 20 mM magnesium chloride + 0.1 mg/mL BSA + 50 µM DTT.
(§3) ALK(G1202R/L1196M) and TRKB detection method: 2 µL of kinase and 1 µL of compound were added to a 384-well plate; 2 µL of substrate/ATP mixture was added and incubated at room temperature in the dark for 60 minutes; 5 µL of ADP-Glo™ reagent was added and incubated at room temperature for 40 minutes; 10 µL of kinase detection reagent was added and incubated at room temperature for 30 minutes; the plate was read on a microplate reader, and luminescence was recorded (integration time set to 0.5 seconds).
(§4) The IC50 value could then be derived by performing a curve fit using a four-parameter logistic model (obtained using the "log(inhibitor) vs. response -- Variable slope" mode in GraphPad Prism).

The target of assay [2] is T2, TRKB (Homo sapiens, UniProt Q16620).
T2 construct: purchased Carna
The assay is described as above. The class given is biochemical. The method, then:
as §1, §2
TRKB reaction concentration 4.47 nM, ATP concentration 5.0 µM, substrate PolyE4Y1 concentration 0.2 µg/µL. TRKB kinase buffer was 40 mM Tris-HCl (pH 7.5) + 20 mM magnesium chloride + 2.5 mM manganese chloride + 0.1mg/mL BSA+ 50 µM DTT.
as §3, §4

The target in assay [3] is T1, ALK(G1202R/L1196M). Nature of the assay: In vitro kinase inhibitory activity assay, Experimental method 1 (ADP-Glo). The format is biochemical. Particulars: final ATP 50 µM, read-out: Kinase half maximal inhibitory concentration IC50 ALK^G1202R/L1196M. As to the method: as §1
(§5) Experimental materials: ALK Active, ALK(L1196M) Active, ALK(G1202R) Active, and ALK(G1202R/L1196M) Active were purchased from Carna; SRC Substrate was purchased from SignalChem; IGF1R tide was purchased from SignalChem; ADP-Glo Kinase Assay was purchased from Promega; Kinase assay buffer III was purchased from SignalChem; and Nivo multimode plate reader (PerkinElmer).
(§6) Each concentration of the compounds was further diluted 20-fold using 1X kinase buffer to prepare compound working solutions containing 5% DMSO. 1 µL of each concentration gradient working solution was added to a microplate, with duplicate wells set for each concentration. 2 µL of ALK enzyme (15 ng per well) and 2 µL of a mixture of substrate and ATP (25 µM ATP, 0.5 µg/µL SRC Substrate) were added to the microplate. […] The reaction system was placed at 25°C for 1 hour. After the reaction, 5 µL of ADP-Glo reagent was added to each well and reacted at 25°C for another 40 minutes. After the reaction, 10 µL of kinase detection reagent was added to each well and reacted at 25°C for 30 minutes. Chemiluminescence was then measured using the PerkinElmer Nivo multimode plate reader with an integration time of 0.5 seconds.
ALK (G1202R/L1196M) kinase inhibition assay method: The preparation method for the working solution of the test compound was the same as for the ALK kinase. […] The subsequent steps were the same as for ALK kinase.
as §4
(In ADP-Glo the light output rises with the ADP produced.)

In another assay the target is T3, ALK(G1202R) (Homo sapiens, UniProt Q9UM73, G1202R).
T3 construct: purchased Carna
The assay is described as above. The format is biochemical. Particulars: final ATP 50 µM, read-out: Kinase half maximal inhibitory concentration IC50 ALK^G1202R. The method, then:
as §1, §5, §6
ALK (G1202R) kinase inhibition assay method: The preparation method for the working solution of the test compound was the same as for the ALK kinase. […] The subsequent steps were the same as for ALK kinase.
as §4

Assay [4] concerns Ba/F3-EML4-ALK-G1202R/L1196M. Description: Anti-proliferative activity test on Ba/F3 cell lines (CellTiter-Glo). The format is cell-based. To be noted: Ba/F3 EML4-ALK-G1202R-L1196M; 72 hours; read-out: Half maximal inhibitory concentration IC50 for cells Ba/F3-EML4-ALK-G1202R/L1196 M. As to the method:
(§7) • (1) Cell culture: The cell lines were cultured in an incubator at 37°C with 5% CO2. Regular passaging was performed, and cells in the logarithmic growth phase were selected for plating; • (2) Preparation of compound storage plate: The test compounds were prepared into a 10 mM solution with DMSO (Stock Con.); The compounds were then prepared into a 1 mM solution with DMSO (Work Con.); 1 µL of the stock solution was mixed with 9 µL of DMSO to prepare a 10 µL work solution. • (3) Preparation of 1000× compound storage plate (tube): The compounds were 3-fold serially diluted from […] to the lowest concentration, for a total of 8 concentrations; • (4) Preparation of 20× compound working solution: 98 µL of cell culture medium was added to a flat-bottomed 96-well transparent drug plate. From the 1000× compound storage plate, 2 µL of the compound was pipetted into the cell culture medium in the 96-well transparent drug plate. In the solvent control, 2 µL of DMSO was added. After the compound or DMSO was added, the mixture was homogenized using a pipette. • (5) Cells were stained with trypan blue and viable cells were counted to ensure a cell viability of 90% or more. The cell concentration was adjusted to an appropriate concentration; • (6) 95 µL of cell suspension (2000 cells/well) was added to each well of the compound assay cell plate, and cell-free culture medium containing 0.1% DMSO was added to the Min control wells; • (7) Administration in the compound assay cell plate: 5 µL of 20× compound working solution was added to the cell culture plate, 5 µL of DMSO-cell culture medium mixture was added to the Max control wells, and the final concentration of DMSO was 0.1%; • (8) The culture plate was then incubated in an incubator at 37°C with 5% CO2 for 72 hours; • (9) The following operations were conducted in accordance with the instructions of the Promega CellTiter-Glo Luminescent Cell Viability Assay Kit (Promega-G7573): CellTiter-Glo buffer was thawed and brought to room temperature; CellTiter-Glo substrate was brought to room temperature; CellTiter-Glo buffer was added to a bottle of CellTiter-Glo substrate to dissolve the substrate, thereby preparing CellTiter-Glo working solution; The mixture was slowly vortexed and shaken to be fully dissolved; The cell culture plate was removed and allowed to equilibrate to room temperature for 10 minutes; 50 µL (equal to half the volume of cell culture medium in each well) of CellTiter-Glo working solution was added to each well; The culture plate was shaken on an orbital shaker for 2 minutes to induce cell lysis; The plate was then left at room temperature for 10 minutes to stabilize the luminescent signal; The luminescent signal was detected using a SpectraMax Paradigm plate reader; Cell viability assay was conducted using CellTiter-Glo luminescence method.
(§8) Data analysis: The corresponding […] value (RLU) for each well was obtained from SpectraMax Paradigm readings. […] The inhibition rates corresponding to compounds at different concentrations were calculated in Excel, and the inhibition rate curves were plotted using GraphPad Prism software to calculate relevant parameters, including the maximum and minimum inhibition rates of the cells and the IC50 value.
(In general: In ATP-based viability assays light output follows the ATP content of the culture.)

The subject of another assay is Ba/F3-TEL-TRKB. Described as above. Particulars: Mus musculus, BaF3; 72 hours; read-out: Half maximal inhibitory concentration IC50 for cells Ba/F3-TEL-TRKB. The class given is cell-based. The method, then:
as §7, §8

The target of assay [5] is T2, TRKB. Nature of the assay: In vitro kinase inhibitory activity assay, Experimental method 1 (ADP-Glo). The format is biochemical. Particulars: read-out: Kinase half maximal inhibitory concentration IC50 TRKB. The method, then:
as §1, §5, §6
TRKB kinase inhibition assay method: The preparation method for the working solution of the test compound was the same as for the ALK kinase. 2 µL of TRKB (0.5 ng per well) and 4 µL of a mixture of substrate and ATP (5 µM ATP, 0.5 µM SRC Substrate) were added to the microplate. […] The subsequent steps were the same as for ALK kinase.
as §4

[6] abbreviates: Experimental method 2, ATP 5.0 µM, substrate IGF1, read-out: Kinase half maximal inhibitory concentration IC50 ALK^G1202R/L1196M.
[7] abbreviates: Experimental method 2, ATP 5.0 µM, substrate PolyE4Y1, read-out: Kinase half maximal inhibitory concentration IC50 TRKB.

pIC50: −log10 of the molar value.

T1 sequence (Q9UM73 19-1620 L1196M/G1202R): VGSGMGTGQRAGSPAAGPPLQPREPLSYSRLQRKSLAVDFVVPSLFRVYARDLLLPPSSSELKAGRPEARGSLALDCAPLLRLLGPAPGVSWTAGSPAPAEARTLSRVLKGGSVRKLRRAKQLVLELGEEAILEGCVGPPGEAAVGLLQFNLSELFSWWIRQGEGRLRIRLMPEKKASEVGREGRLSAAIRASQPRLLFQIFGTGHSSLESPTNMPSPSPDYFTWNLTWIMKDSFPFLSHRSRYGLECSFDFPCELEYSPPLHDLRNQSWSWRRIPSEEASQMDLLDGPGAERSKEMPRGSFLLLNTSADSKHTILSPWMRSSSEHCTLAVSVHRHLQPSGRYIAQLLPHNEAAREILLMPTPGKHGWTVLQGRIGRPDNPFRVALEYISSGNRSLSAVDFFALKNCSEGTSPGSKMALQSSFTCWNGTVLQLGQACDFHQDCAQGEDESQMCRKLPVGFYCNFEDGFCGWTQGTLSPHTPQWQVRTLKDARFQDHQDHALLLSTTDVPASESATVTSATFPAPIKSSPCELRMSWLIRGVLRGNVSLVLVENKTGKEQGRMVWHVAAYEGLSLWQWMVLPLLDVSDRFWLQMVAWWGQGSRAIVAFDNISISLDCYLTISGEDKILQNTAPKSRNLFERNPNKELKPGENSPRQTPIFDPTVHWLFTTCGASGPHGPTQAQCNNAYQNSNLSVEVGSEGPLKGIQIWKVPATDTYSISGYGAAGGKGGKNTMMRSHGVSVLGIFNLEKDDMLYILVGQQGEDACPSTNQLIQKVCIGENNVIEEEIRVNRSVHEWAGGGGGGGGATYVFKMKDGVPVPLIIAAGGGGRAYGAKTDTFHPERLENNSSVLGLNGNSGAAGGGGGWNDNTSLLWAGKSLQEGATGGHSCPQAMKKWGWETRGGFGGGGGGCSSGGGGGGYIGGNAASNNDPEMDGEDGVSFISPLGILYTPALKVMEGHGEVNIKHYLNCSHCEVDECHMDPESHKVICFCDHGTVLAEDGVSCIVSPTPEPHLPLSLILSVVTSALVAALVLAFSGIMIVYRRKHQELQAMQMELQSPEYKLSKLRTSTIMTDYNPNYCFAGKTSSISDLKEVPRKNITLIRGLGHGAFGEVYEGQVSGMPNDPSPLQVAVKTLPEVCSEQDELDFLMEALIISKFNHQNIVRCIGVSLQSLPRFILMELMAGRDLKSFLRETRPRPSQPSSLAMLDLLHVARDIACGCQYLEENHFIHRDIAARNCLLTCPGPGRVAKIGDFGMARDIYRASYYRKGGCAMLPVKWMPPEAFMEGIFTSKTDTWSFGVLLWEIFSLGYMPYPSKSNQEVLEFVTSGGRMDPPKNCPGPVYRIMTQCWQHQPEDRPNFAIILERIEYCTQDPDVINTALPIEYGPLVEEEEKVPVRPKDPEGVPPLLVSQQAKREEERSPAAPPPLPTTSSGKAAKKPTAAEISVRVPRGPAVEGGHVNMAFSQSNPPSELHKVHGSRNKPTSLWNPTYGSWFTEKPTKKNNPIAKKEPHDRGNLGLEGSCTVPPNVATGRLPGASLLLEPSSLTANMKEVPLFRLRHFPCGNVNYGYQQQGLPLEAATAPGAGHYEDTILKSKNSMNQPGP
T2 sequence (Q16620 32-822): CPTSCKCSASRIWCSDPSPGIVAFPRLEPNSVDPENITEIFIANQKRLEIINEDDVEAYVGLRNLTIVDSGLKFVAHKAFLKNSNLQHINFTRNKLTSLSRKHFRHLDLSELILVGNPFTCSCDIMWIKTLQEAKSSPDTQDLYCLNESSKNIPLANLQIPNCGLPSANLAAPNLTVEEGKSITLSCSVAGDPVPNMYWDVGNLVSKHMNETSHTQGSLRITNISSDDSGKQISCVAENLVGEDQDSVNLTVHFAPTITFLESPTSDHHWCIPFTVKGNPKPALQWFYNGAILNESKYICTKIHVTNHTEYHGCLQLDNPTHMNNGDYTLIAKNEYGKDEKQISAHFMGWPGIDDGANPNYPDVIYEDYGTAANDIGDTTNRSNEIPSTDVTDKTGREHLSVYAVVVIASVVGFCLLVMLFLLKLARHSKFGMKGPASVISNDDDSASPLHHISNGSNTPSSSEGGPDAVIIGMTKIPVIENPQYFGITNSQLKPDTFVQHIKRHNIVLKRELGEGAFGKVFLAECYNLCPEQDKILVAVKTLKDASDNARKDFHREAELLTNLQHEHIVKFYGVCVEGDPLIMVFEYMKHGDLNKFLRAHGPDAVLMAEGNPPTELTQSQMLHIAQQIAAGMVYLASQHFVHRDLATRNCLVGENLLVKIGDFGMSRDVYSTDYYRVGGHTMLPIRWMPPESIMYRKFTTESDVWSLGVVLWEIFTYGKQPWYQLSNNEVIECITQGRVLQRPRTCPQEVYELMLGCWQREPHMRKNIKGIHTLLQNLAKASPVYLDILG
T3 sequence (Q9UM73 19-1620 G1202R): as the sequence (Q9UM73 19-1620 L1196M/G1202R) above, with M1178L counted along it

In the case of `CON=C1NCC2(CC2)COc2ccc(F)cc2CN2c3nc4c1cnn4cc3OC[C@H]2C(F)F` [Compound 011], the pIC50 on ALK(G1202R/L1196M) [1] (setting [6]) was 8.77; on TRKB [2] (setting [7]) it was 8.47.
Take `CCON=C1NC(C)(C)COc2ccc(F)cc2CN2c3nc4c1cnn4cc3OC[C@H]2C(F)F` [Compound 002]: the pIC50 on ALK(G1202R/L1196M) [3] is 7.84; at ALK(G1202R), 7.56.
With `Cc1nc2cc3c4nc2n1C(=O)NC(C)(C)COc1ccc(F)cc1CN4[C@H](C(F)F)CO3` [Compound 012], the pIC50 was 8.82 against ALK(G1202R/L1196M) [1], 8.54 against TRKB [2], 8.15 in assay [4] and 8.28 with Ba/F3-TEL-TRKB.
Regarding `CC1(C)COc2ccc(F)cc2CN2c3nc4c(c(Br)nn4cc3OC[C@H]2C(F)F)C(=O)N1` [Compound 009], the pIC50 on ALK(G1202R/L1196M) [1] (setting [6]) was 9.10; at TRKB [2] (setting [7]) it was 8.70; in assay [4] it was 8.14; with Ba/F3-TEL-TRKB, 8.11.
Turning to `Cc1nn2cc3c4nc2c1C(=O)NC(C)(C)COc1ccc(F)cc1CN4[C@H](C(F)F)CO3` [Compound 006], the pIC50 was 9.22 at ALK(G1202R/L1196M) [1] (setting [6]) and 8.92 on TRKB [2] (setting [7]).
On to `CC1(C)COc2ccc(F)cc2CN2c3nc4c(cc3OC[C@H]2C(F)F)ncn4C(=O)N1` [Compound 007], for which the pIC50 on ALK(G1202R/L1196M) [1] is 9.00; at TRKB [2] it was 8.59.
Consider `Cc1nn2cc3c4nc2c1C(=O)NC(C)(C)COc1ncc(F)cc1CN4[C@H](C(F)F)CO3` [Compound 015], for which the pIC50 on ALK(G1202R/L1196M) [1] (setting [6]) was 9.22; on TRKB [2] (setting [7]), 8.96.
As for `CC1(C)COc2ccc(F)cc2CN2c3nc4c(c(C#CC5CC5)nn4cc3OC[C@H]2C(F)F)C(=O)N1` [Compound 020], the pIC50 is 8.96 at ALK(G1202R/L1196M) [1] (setting [6]) and 8.00 at TRKB [2] (setting [7]).
For the compound `CC1(C)COc2ncc(F)cc2CN2c3nc4c(cnn4cc3OC[C@H]2C(F)F)C(=S)N1` [Compound 004], the pIC50 is 8.89 on ALK(G1202R/L1196M) [3] and 8.62 at TRKB [5].
`CC1(C)COc2ccc(F)cc2CN2c3nc4c(c(C5CC5)nn4cc3OC[C@H]2C(F)F)C(=O)N1` [Compound 017]: the figures for the pIC50 on ALK(G1202R/L1196M) [1] (setting [6]) and at TRKB [2] (setting [7]) were 7.82 and 7.50, respectively.
In the same order, the values of `O=C1NC2(CCC2)COc2ccc(F)cc2CN2c3nc4c1c(Br)nn4cc3OC[C@H]2C(F)F` [Compound 021] are 8.40 and 8.15.
In the same order, the values of `CC1(C)COc2ccc(F)cc2CN2c3nc4c(c(C#N)nn4cc3OC[C@H]2C(F)F)C(=O)N1` [Compound 010] are 8.82 and 8.36.
`O=C1N[C@H]2C[C@H](C2)Oc2ccc(F)cc2CN2c3nc4c1c(Br)nn4cc3OC[C@H]2C(F)F` [Compound 023]: the pIC50 at ALK(G1202R/L1196M) [1] (setting [6]) was 8.92; on TRKB [2] (setting [7]), 8.82; in assay [4], 7.97; in the assay on Ba/F3-TEL-TRKB it was 8.74.
For `CC1(C)COc2ccc(F)cc2CN2c3nc4c(cc3OC[C@H]2C(F)F)ncn4C(=S)N1` [Compound 008], the pIC50 on ALK(G1202R/L1196M) [1] (setting [6]) was 8.77; at TRKB [2] (setting [7]) it was 8.11.
Consider `COCCON=C1NC(C)(C)COc2ccc(F)cc2CN2c3nc4c1cnn4cc3OC[C@H]2C(F)F` [Compound 003], for which the pIC50 at ALK(G1202R/L1196M) [3] is 7.95; at ALK(G1202R), 7.91.
On to `O=C1NC2(CC2)COc2ccc(F)cc2CN2c3nc4c(cc3OC[C@H]2C(F)F)ncn41` [Compound 014], for which the pIC50 was 9.40 on ALK(G1202R/L1196M) [1] (setting [6]), 9.15 on TRKB [2] (setting [7]), 8.28 in assay [4] and 9.70 in the assay on Ba/F3-TEL-TRKB.
